From patent publication US20240366612A1, “COMPOUNDS AND METHODS FOR MODULATING NUCLEIC ACID SPLICING” (REMIX THERAPEUTICS INC., priority 2021, published 2024)

What was measured:
Type in all cases: cell-based
HTT mRNA = assay: Splicing RT-qPCR assay, HTT canonical (CJ) and alternative (AJ) junction mRNA; settings: Homo sapiens, A673 or K562 cells, 24 hours treatment; for IC50: decrease in CJ mRNA; for AC50: increase in AJ mRNA
Summary of the method: (§1)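 Compound-treated A673 or K562 cells (11-point 3-fold dilution, top dose 10 uM final, DMSO ≤0.25%) were incubated for 24 h at 37° C. Lysates underwent one-step RT-qPCR for canonical and alternative-exon junction isoforms. Normalization used PPIA for A673 and GAPDH or GUSB for K562.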

MYB mRNA = assay: Splicing RT-qPCR assay, MYB canonical (CJ) and alternative (AJ) junction mRNA; settings: Homo sapiens, A673 or K562 cells, 24 hours treatment; for IC50: decrease in CJ mRNA; for AC50: increase in AJ mRNA
Summary of the method: as §1

HTT CJ mRNA = assay: Gene panel canonical junction qPCR assay, HTT; settings: Homo sapiens, larger gene panel, read-out: HTT IC50 (decrease in CJ mRNA levels)
Summary of the method: (§2)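 A673 or K562 cells treated 24 h with 11-point 3-fold dilutions (top 10 µM, ≤0.25% DMSO) at 37 °C. Canonical exon-junction mRNA measured by probe-based RT-qPCR, normalized to GAPDH, GUSB or PPIA and DMSO (2^−ΔΔCt), converted to percent response over a fixed ΔCt window; IC50 from 4-parameter fit.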

MYB CJ mRNA = assay: Gene panel canonical junction qPCR assay, MYB; settings: Homo sapiens, larger gene panel, read-out: MYB IC50 (decrease in CJ mRNA levels)
Summary of the method: as §2

SMN2 CJ mRNA = assay: Gene panel canonical junction qPCR assay, SMN2; settings: Homo sapiens, larger gene panel, read-out: SMN2 IC50 (decrease in CJ mRNA levels)
Summary of the method: as §2

Target C CJ mRNA = assay: Gene panel canonical junction qPCR assay, Target C; settings: Homo sapiens, larger gene panel, read-out: Target C IC50 (decrease in CJ mRNA levels)
Summary of the method: as §2

| Compound | IC50 (HTT mRNA) [nM] | AC50 (HTT mRNA) [nM] | IC50 (MYB mRNA) [nM] | AC50 (MYB mRNA) [nM] | IC50 (HTT CJ mRNA) [nM] | IC50 (MYB CJ mRNA) [nM] | IC50 (SMN2 CJ mRNA) [nM] | IC50 (Target C CJ mRNA) [nM] |
| --- | --- | --- | --- | --- | --- | --- | --- | --- |
| Cc1cn2cc(-c3cc4ncn(C5=CCNCC5)c(=O)c4s3)cc(F)c2n1 [Compound 276, 6-{8-fluoro-2-methylimidazo[1,2-a]pyridin-6-yl}-3-(1,2,3,6-tetrahydropyridin-4-yl)thieno[3,2-d]pyrimidin-4-one] | 100 to 1000 | 100 to 1000 | 100 to 1000 | 100 to 1000 | 100 to 1000 | 100 to 1000 | < 100 | 100 to 1000 |
| Cc1cn2cc(-c3cc4ncn(C5CNCCC5=O)c(=O)c4s3)cc(F)c2n1 (centres unmarked) [Compound 279, 3-(6-{8-fluoro-2-methylimidazo[1,2-a]pyridin-6-yl}-4-oxothieno [3,2-d]pyrimidin-3-yl)piperidin-4-one] | > 10000 | > 10000 | > 10000 | > 10000 | > 10000 | > 10000 | > 10000 | > 10000 |
| Cc1cn2cc(N3CCc4cc(C5CCNCC5)sc4C3=O)cc(F)c2n1 [Compound 800, 6-[8-fluoro-2-methylimidazo[1,2-a]pyridin-6-yl]-2-(piperidin-4-yl)-4H,5H-thieno[2,3-c]pyridin-7-one] | > 10000 | > 10000 | > 10000 | > 10000 | > 10000 | > 10000 | > 10000 | > 10000 |
| Cc1cn2cc(-n3ccc4cc(C5CCNCC5)sc4c3=O)cc(F)c2n1 [Compound 801, 6-[8-fluoro-2-methylimidazo[1,2-a]pyridin-6-yl]-2-(piperidin-4-yl)thieno[2,3-c]pyridin-7-one] | > 10000 | > 10000 | > 10000 | > 10000 | > 10000 | > 10000 | > 10000 | > 10000 |
| Cc1cc(-c2cc3cnn(C4CCNCC4)c(=O)c3s2)cc2cn(C)nc12 [Compound 802, 2-(2,7-dimethyl-2H-indazol-5-yl)-6-(piperidin-4-yl)thieno[2,3-d]pyridazin-7(6H)-one] | 100 to 1000 | 100 to 1000 | 100 to 1000 | 100 to 1000 | 100 to 1000 | 100 to 1000 | < 100 | 100 to 1000 |
| Cc1cn2cc(-c3cc4ccn(C5CCNCC5)c(=O)c4s3)cc(F)c2n1 [Compound 804, 2-(8-fluoro-2-methylimidazo[1,2-a]pyridin-6-yl)-6-(piperidin-4-yl)thieno[2,3-c]pyridin-7(6H)-one] | 100 to 1000 | 100 to 1000 | 100 to 1000 | 100 to 1000 | 100 to 1000 | 100 to 1000 | 100 to 1000 | 100 to 1000 |
| Cc1cc(-c2cc3ccn(C4CCNCC4)c(=O)c3s2)cc2cn(C)nc12 [Compound 805, 2-(2,7-dimethyl-2H-indazol-5-yl)-6-(piperidin-4-yl)thieno[2,3-c]pyridin-7(6H)-one] | 100 to 1000 | 100 to 1000 | 100 to 1000 | 100 to 1000 | 100 to 1000 | 100 to 1000 | < 100 | 1000 to 10000 |
| Cc1cn2nc(-c3cc4ccn(C5CCNCC5)c(=O)c4s3)cc(C)c2n1 [Compound 806, 2-(2,8-dimethylimidazo[1,2-b]pyridazin-6-yl)-6-(piperidin-4-yl)thieno[2,3-c]pyridin-7(6H)-one] | 100 to 1000 | 100 to 1000 | 100 to 1000 | 100 to 1000 | 100 to 1000 | 100 to 1000 | 100 to 1000 | 100 to 1000 |
| Cc1cn2cc(-c3cc4ccn(C5CCN(C)CC5)c(=O)c4s3)cc(F)c2n1 [Compound 808, 2-(8-fluoro-2-methylimidazo[1,2-a]pyridin-6-yl)-6-(1-methylpiperidin-4-yl)thieno[2,3-c]pyridin-7(6H)-one] | 100 to 1000 | 1000 to 10000 | 100 to 1000 | 100 to 1000 | 100 to 1000 | 100 to 1000 | < 100 | 1000 to 10000 |
| Cc1cn2nc(-c3cc4ccn(C5CCN(C)CC5)c(=O)c4s3)cc(C)c2n1 [Compound 809] | 1000 to 10000 | 1000 to 10000 | 1000 to 10000 | 1000 to 10000 | 1000 to 10000 | 1000 to 10000 | 100 to 1000 | 1000 to 10000 |
| Cc1cn2nc(-c3nc4cnn(C5CCNCC5)c(=O)c4s3)cc(C)c2n1 [Compound 810] | 100 to 1000 | 100 to 1000 | 100 to 1000 | 100 to 1000 | 100 to 1000 | 100 to 1000 | 100 to 1000 | 100 to 1000 |
| Cc1nc(-c2nc3cnn(C4CCNCC4)c(=O)c3s2)cc2cn(C)nc12 [Compound 811] | 1000 to 10000 | 1000 to 10000 | 1000 to 10000 | 1000 to 10000 | 1000 to 10000 | 1000 to 10000 | 100 to 1000 | > 10000 |
| Cc1cn2cc(-c3nc4cnn(C5CCNCC5)c(=O)c4s3)nc(C)c2n1 [Compound 812, 2-(2,8-dimethylimidazo[1,2-a]pyrazin-6-yl)-6-(piperidin-4-yl)thiazolo[4,5-d]pyridazin-7(6H)-one] | > 10000 | > 10000 | > 10000 | > 10000 | > 10000 | > 10000 | > 10000 | > 10000 |
